Laboratory results from a melting point compilation (Tetko et al.; mined from patent text by program, amines drawn as free bases though some values may be those of a salt).

Row | SMILES | melting point
1 | COc1cc(N)c(C(=O)CS(C)=O)cc1OC (configuration not stated) | 162 to 164 °C
2 | Clc1ccc(OCc2ccccc2)cn1 | < 50 °C
3 | CN(C)C(=O)C1Cc2c(c(Cl)cc(F)c2N2C(=O)C3=C(CCCC3)C2=O)O1 (configuration not stated) | 190 to 193 °C
4 | COc1c(C)cc(NC(C)=O)c(Br)c1C | 152 to 153 °C
5 | CCOC(=O)c1cnc2cc(OC)ccc2c1O | > 260 °C
6 | CC(=O)OCCC1Cc2c(C)c(OCc3ccccc3)c(C)c(C)c2O1 (racemic) | 80 to 82 °C
7 | O=C1c2ccccc2C(=O)c2oc(-c3ccccc3Cl)nc21 | 216 °C
8 | CC(C)(F)C1COCc2nc3c(N)nc4c(c3n21)CCCC4 (configuration not stated) | 196 to 197 °C
9 | O=[N+]([O-])c1ccc(OCC(F)(F)F)c([N+](=O)[O-])c1 | 76 to 77 °C
10 | CNC(=S)Nc1c(C)cccc1N1CCOCC1 | 182 to 183 °C
11 | Cc1nc2c(O)c(CCC(=O)c3cccs3)c(C(=O)N(C)C)cc2n1C | 233 to 235 °C
12 | CCCCn1cc(/C=C(\Cc2cc3c(cc2OC)OCO3)C(=O)O)c(-c2ccc(OC)cc2OCc2ccccc2C(=O)O)n1 | 226 to 227 °C
13 | COc1ccc(C2C(C(=O)c3ccc(N4CCOCC4)cc3)=C(O)C(=O)N2c2ccc(C)nn2)cc1 (configuration not stated) | 232 °C
14 | CC(=O)c1sc2c(Br)cccc2c1C | 105 to 107 °C
15 | CCCCc1cc(C(=O)Nc2nnn[nH]2)nc(-c2ccc(N)cc2)c1 | > 300 °C
16 | CN1CCN(c2ccnc3c(NC(=O)c4c(Cl)cccc4Cl)cc(F)cc23)C1=O | 268 to 272 °C
17 | COC(=O)c1ccc(OC)c2oc(/C=C\C(=O)O)cc12 | 175 to 178 °C
18 | O=C(NN=CC=Cc1ccc([N+](=O)[O-])o1)c1cc2ccccc2cc1O | 259 °C
19 | O=C(C(=O)c1cccc(OCCCN2CCCC2)c1)c1cccc(OCCCN2CCCC2)c1 | 136 to 139 °C
20 | COC(=O)c1ccc2cc(Cl)ccc2c1 | 97 to 98 °C
21 | O=c1c2ccccc2n(Cc2ccccc2)c2cc(Cl)ccc12 | 134 to 136 °C
22 | CC(Oc1ccc(Oc2ccccc2)cc1)(C(=O)O)C(F)(F)F (configuration not stated) | 111 to 112 °C
23 | O=C(c1ccccc1F)c1cc(Cl)ccc1C#CCN1C(=O)c2ccccc2C1=O | 158 to 161 °C
24 | Oc1ccc(-c2nc3cc(O)c(Br)cc3o2)cc1F | 224 to 226 °C
25 | CC(Oc1ccc2oc3cc(Cl)ccc3c2c1)C(=O)O (configuration not stated) | 170 to 172 °C
26 | NN=C(c1cccc(F)c1)c1cccc(F)c1 | 35 to 36 °C

Row | SMILES | melting point
27 | O=C(O)c1ccc(-c2nc(-c3ccc(C(F)(F)F)cc3)no2)cc1 | 293 to 294 °C
28 | CC1(C)C(C=CC(=O)OC2CC2)C1C(=O)OC(C#N)c1cccc(Oc2ccccc2)c1 (configuration not stated) | 62 °C
29 | CS(=O)(=O)Nc1cc2oc(O)cc(=O)c2cc1Oc1ccccc1 | > 250 °C
30 | CC(C)(C)N(NC(=O)c1cncc(Br)c1)C(=O)c1ccc(Cl)cc1 | 193 to 197 °C
31 | CCOC(=O)C(=CNc1cc(C)nc(-c2ccncc2)n1)C(=O)OCC | 169 to 171 °C
32 | Cc1cccc(NC(=O)NCC(=O)N(CC(=O)OC(C)(C)C)c2cccc(Cl)c2)c1 | 110 °C
33 | Cc1nc(-c2cc3c4ccccc4n(CCCCl)c3cn2)no1 | 130 to 135 °C
34 | CP(C)(=O)c1ccc(C(=O)O)cc1 | 101 °C
35 | CNC(=O)c1ccccc1Nc1nc(Nc2cc3c(cc2OC)CCOC(=O)N3C)ncc1Br | 251 to 253 °C
36 | CN(Cc1ccccc1)CC1CCSc2[nH]c3ccccc3c21 (configuration not stated) | 91 to 93 °C
37 | O=C(OCc1c(Cl)ccc2cc(Cl)cnc12)c1ccccc1[N+](=O)[O-] | 152 °C
38 | O=C(C1Nc2cc(F)ccc2-n2cnc(-c3nc(C4CC4)no3)c21)N1CCOCC1 (configuration not stated) | 240 to 242 °C
39 | COC(=O)CCCc1cc2nc(Cl)ccc2n1S(=O)(=O)c1ccc2ncccc2c1 | 133 to 141 °C
40 | NC(N)=Nc1nc(-c2cccc(CCl)n2)cs1 | 260 to 261 °C
41 | CCCCC1CCC(C2=C(Cl)C(=O)c3ccccc3C2=O)CC1 (configuration not stated) | 107 to 110 °C
42 | CC(O)(CC(=O)O)c1ccc(Oc2ccccc2)cc1 (configuration not stated) | 137 to 138 °C
43 | Cc1ccc(S(=O)(=O)N2C[C@H](O)C[C@H]2CO)cc1 | 127 °C
44 | COc1ccc(-c2ccc(C(=O)Nc3ccc4cc(CN5CCCC5)cnc4c3C)cc2)cc1 | 190 to 192 °C
45 | CC(=O)N(C)c1cc(Br)cc(S(=O)(=O)c2ccccc2)c1 | 147 to 148 °C
46 | O=c1cccc(-c2ccccn2)[nH]1 | 124 to 127 °C
47 | Cc1ccc(-c2cccn2-c2ccc(S(N)(=O)=O)cc2)cc1 | 183 to 184 °C
48 | O=C(NCC(F)(F)F)C1(CCCCN2CCN(c3ccc4cccc(Cl)c4n3)CC2)c2ccccc2Oc2ccccc21 | 68 °C
49 | CN(C)CC1CCN(c2nc(N3CCCCC3)c3ncnc(N(C)Cc4cccc5ccccc45)c3n2)CC1 | 150 to 151 °C
50 | O=C(CCCCCCS(=O)(=O)c1ccccc1)c1ncco1 | 55 to 56 °C
51 | Clc1ccc(C(Cl)c2cc3cc(Cl)cc(Cl)c3o2)cc1 (configuration not stated) | 72 to 74 °C
52 | N#Cc1ccc(NC(=O)NC(=O)c2ccccc2Cl)c(Cl)c1Cl | 278 to 282 °C

Row | SMILES | melting point
53 | CC(C)=CCCC(C)=CCOc1ccc(C(=O)NCCSc2ccc(C(F)(F)F)cn2)cc1 | 96.7 to 97.5 °C
54 | Cc1ccc(Cc2cnc(NCCCN(c3ccccc3)c3ccccn3)[nH]c2=O)cn1 | 216 to 218 °C
55 | Cc1cc(SC(C)C)c(NC(=O)CCCCCCSc2nc3ccccc3o2)c(SC(C)C)n1 | 76 to 78 °C
56 | CC1CCCN1CCCN1CCN(CCN2CCCC2C)C1=C(C#N)C#N (configuration not stated) | 69 to 71 °C
57 | O=[N+]([O-])c1cccc(C2=NCN(c3cccnc3)S2)c1 | 109 to 111 °C
58 | c1ccc2[nH]c(Cc3ccncc3)nc2c1 | 185 to 186 °C
59 | CS(=O)(=O)c1ccc(-n2nc(C(F)(F)F)cc2-c2nc3ccc(Cl)cc3s2)cc1 | 195 to 196 °C
60 | CCOC(=O)c1cn2c(cc(Cl)c3ccccc32)n1 | 169 to 170 °C
61 | Cn1nc2c(sc3ccccc32)c1N | 233 °C
62 | N#CCCSCc1csc(=O)[nH]1 | 108 to 111 °C
63 | COc1cc2nc(N)nc(-c3ccc(O)c(Br)c3)c2cc1OC | 233 to 234 °C
64 | O=C(NC1CCC(CCN2CCN(c3nccc4c3OCC4)CC2)CC1)C1CCOC1 (configuration not stated) | 195 °C
65 | CN1CCCNC1=C[N+](=O)[O-] | 114 to 115 °C
66 | CC(C)Cc1ccc(-c2ccccc2C(C)C(=O)O)cc1 (configuration not stated) | 76 to 77 °C
67 | O=C(O)c1cccc(OCc2ccccc2)c1[N+](=O)[O-] | 198 to 200 °C
68 | O=C(OCCCc1ccc(OCc2ccc(Cl)cc2)cc1)c1cccnc1 | 109 to 110 °C
69 | COc1ccc(Nc2nc(Cl)nc(NCCCO)n2)cc1 | 155 to 159 °C
70 | O=C1CCC(c2ccccc2)(c2ccccc2)[C@@H]2CN(Cc3ccccc3)C[C@H]12 (racemic) | 132 °C
71 | O=c1[nH]cccc1CO | 203 to 205 °C
72 | CN(C)CC(=O)NN=Cc1c(-c2ccccc2)nn2ccccc12 | 172 to 173 °C
73 | CC(C)(C)OC(=O)NCCc1cccc(OCCC2Oc3ccccc3N(Cc3ccccc3Cl)C2=O)c1 (configuration not stated) | 61 to 65 °C
74 | COc1ccc(C)cc1NC(=O)Nc1ccc(N2CCN(C(=O)Nc3ccc(NC(C)=O)cc3Cl)CC2)cc1 | 155 to 157 °C
75 | CCO/C(=N/O)C1Cc2cc(C(=O)c3ccccc3F)c(O)c(C)c2O1 (configuration not stated) | 70 to 71 °C
76 | COc1ccc2ccc(C(=O)NCc3ccccc3)c(OC(C)C)c2c1 | 88 to 90 °C
77 | Cc1nc2cc3c(cc2s1)C1(CO3)C(=O)N(Cc2ccccn2)c2ccccc21 (configuration not stated) | 249 to 250 °C
78 | CC(C)(C)OC(=O)NN(C(=O)OC(C)(C)C)c1ccc(OCC(F)(F)F)cc1 | 140 to 141 °C

Row | SMILES | melting point
79 | CC(C)CC1NCC(C)(C)NC1=O (configuration not stated) | 140 to 144 °C
80 | O=C(O)c1ccccc1C(=O)c1ccccc1Cl | 112 to 116 °C
81 | Cc1ccc(NC(=O)Nc2ccc(-c3c(Cc4cccnc4)sc4ncnc(N)c34)cc2)cc1 | 220 to 223 °C
82 | O=C1COCCOCC(=O)NCCSCCSCCN1 | 145 °C
83 | CCc1cc(C#N)c(Cl)nc1C | 63 to 64 °C
84 | CCOC(=O)C(C#N)=Cc1cc(OC)c(C(=O)OC)c(OC)c1 | 142 to 144 °C
85 | NC(CCCBr)C(=O)c1ccccc1 (configuration not stated) | 74 to 76 °C
86 | COc1c(Cl)ccc(-c2cc(N)c(Cl)c(C(=O)NOC3CCCO3)n2)c1F (configuration not stated) | 180 to 183 °C
87 | CCc1ccnc(C(=O)c2[nH]c3ccc(OC(F)(F)F)cc3c2CC(=O)O)c1 | 223 °C
88 | O=C1c2ccccc2C(=O)N1OC1C=CCCC1 (configuration not stated) | 87 °C
89 | Cc1nc(C(=O)NS(=O)(=O)c2c(C)csc2C)no1 | 164 °C
90 | CC(C)Oc1ccc(-n2c(CC(=O)O)c(C(=O)O)c3cc(Oc4cccc(C(F)(F)F)c4)ccc32)cc1 | 203 °C
91 | CN1C(=O)N(c2cc(Cl)cc(Cl)c2)C(=O)[C@]12CN(Cc1ccccc1)C[C@H]2c1ccc(Br)cc1 (relative stereo) | 204 °C
92 | CCOC(=O)C1CCc2cc(O)c(C(C)=O)cc2C1 (configuration not stated) | 73 to 75 °C
93 | Oc1cccc(C2CCCN2Cc2ccncc2)c1 (configuration not stated) | 138 °C
94 | COc1ccc(C#N)c(Cl)c1OC(C)=O | 97 to 99 °C
95 | CCOc1nc(OCC)nc(-n2nc(SC)nc2N)n1 | 201 °C
96 | Nc1nc2ccccc2c2c1ncn2CCOCCCc1ncccn1 | 126 to 127 °C
97 | O=C(NCCN1CCC(C(=O)c2ccc(F)cc2)CC1)c1cccnc1 | 118 °C
98 | CNC(=O)Oc1ccc(C2CCC(=O)N2CCN2CCOCC2)cc1 (configuration not stated) | 119 to 120 °C
99 | CSc1ccc2sc(C(N)=O)c(N(C)C)c2c1 | 140 to 142 °C
100 | CN1C(=O)[C@@H](NC(=O)CCC2CCCCC2)C[C@@H](c2ccccc2)c2ccccc21 (relative stereo) | 156 to 158 °C
101 | CN1CCCC1C1CCCN(CC(=O)N2c3ccccc3NC(=O)c3ccccc32)C1 (configuration not stated) | 161 to 163 °C
102 | CCOC(=O)c1cn(-c2ccccc2)nc1OCc1oc2cc(OCc3nc(-c4ccccc4)oc3C)ccc2c1-c1ccccc1 | 143 to 144 °C
